# Read-outs that look alike come from different tables or passages of the source.
# Experiments:
# HCT116 Parental cells = test: HCT116 Parental cell viability, combination with chemotherapy; format: cell-based; conditions: Homo sapiens, HCT-116, HCT116 cells, read-out: IC50 5-FU
# CRC patient samples = test: Tumor growth inhibition index of CRC patient samples; format: in vivo
# Excerpt: Analytical measurements include tumor volume by caliper and survival. […] Using this information, 8 patient samples with diverse genetic background mutations, stage of cancer, site of cancer (primary vs metastatic) were initially selected (Table 2).
# PARP1 = PARP1 (Homo sapiens, UniProt P09874); test: PARP1 enzymatic (colorimetric) assay
# Chain of PARP1 (P09874 whole entry): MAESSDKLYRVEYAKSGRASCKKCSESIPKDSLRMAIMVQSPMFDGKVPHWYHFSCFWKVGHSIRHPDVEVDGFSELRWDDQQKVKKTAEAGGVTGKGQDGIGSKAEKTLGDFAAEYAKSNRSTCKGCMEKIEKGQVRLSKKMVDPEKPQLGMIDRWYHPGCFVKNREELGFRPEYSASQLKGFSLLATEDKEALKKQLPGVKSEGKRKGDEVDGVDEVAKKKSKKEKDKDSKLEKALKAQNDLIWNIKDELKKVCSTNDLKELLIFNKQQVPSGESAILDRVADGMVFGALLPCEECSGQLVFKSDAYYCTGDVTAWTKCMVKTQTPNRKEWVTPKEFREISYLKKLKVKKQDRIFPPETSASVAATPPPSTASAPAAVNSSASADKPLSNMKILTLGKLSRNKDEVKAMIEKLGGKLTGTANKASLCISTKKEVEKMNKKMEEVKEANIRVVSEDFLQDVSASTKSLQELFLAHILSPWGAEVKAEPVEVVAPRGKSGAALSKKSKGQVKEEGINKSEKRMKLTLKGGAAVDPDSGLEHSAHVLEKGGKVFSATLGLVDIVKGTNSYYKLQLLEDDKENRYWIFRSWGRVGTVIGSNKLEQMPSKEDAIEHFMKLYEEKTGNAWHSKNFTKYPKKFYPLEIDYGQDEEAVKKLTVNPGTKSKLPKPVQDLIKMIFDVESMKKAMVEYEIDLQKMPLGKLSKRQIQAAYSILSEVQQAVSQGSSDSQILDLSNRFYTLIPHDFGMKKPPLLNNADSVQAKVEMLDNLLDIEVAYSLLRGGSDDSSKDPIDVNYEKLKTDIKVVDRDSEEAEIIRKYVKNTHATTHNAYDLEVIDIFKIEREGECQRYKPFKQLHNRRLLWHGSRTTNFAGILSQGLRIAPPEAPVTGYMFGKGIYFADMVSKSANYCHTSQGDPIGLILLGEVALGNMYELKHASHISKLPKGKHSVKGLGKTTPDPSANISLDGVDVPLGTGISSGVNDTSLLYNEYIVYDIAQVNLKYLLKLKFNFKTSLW
# full length CHD1L = molecular target: T1, full length CHD1L (Homo sapiens, UniProt Q86WJ1); test: Nucleosome remodeling FRET assay; format: biochemical; conditions: full length-CHD1L pre-incubated with 10 μM for 10 minutes
# T1 construct: host or cells: Rosetta 2 (DE3) pLysS cells (E. coli) for CHD1L
# T1 sequence (Q86WJ1 16-879): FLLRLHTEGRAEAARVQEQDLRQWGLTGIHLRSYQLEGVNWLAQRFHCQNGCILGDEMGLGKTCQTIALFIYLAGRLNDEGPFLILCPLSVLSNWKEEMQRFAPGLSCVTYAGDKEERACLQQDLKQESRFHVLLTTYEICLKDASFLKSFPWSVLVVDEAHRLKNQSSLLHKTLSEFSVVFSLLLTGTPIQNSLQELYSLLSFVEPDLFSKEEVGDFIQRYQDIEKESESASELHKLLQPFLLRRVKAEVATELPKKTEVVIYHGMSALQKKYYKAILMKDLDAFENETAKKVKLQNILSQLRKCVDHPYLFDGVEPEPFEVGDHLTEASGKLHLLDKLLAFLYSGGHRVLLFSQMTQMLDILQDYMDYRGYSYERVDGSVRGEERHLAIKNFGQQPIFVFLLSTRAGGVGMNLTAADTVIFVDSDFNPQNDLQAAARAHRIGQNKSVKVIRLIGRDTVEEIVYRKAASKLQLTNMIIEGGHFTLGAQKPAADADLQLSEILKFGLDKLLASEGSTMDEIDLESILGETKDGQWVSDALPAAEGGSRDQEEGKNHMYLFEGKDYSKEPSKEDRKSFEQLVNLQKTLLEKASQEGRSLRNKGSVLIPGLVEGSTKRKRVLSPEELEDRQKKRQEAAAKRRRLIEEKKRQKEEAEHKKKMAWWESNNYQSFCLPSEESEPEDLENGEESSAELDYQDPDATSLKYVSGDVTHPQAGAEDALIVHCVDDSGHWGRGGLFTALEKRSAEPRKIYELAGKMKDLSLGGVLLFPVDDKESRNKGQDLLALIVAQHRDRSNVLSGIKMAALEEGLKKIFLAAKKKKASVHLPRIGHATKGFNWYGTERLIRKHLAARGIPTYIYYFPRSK
# Excerpt: For that, mononucleosomes composed of a human histone octamer containing a Cy5-tagged H2A, wrapped by a Cy3-labelled DNA template (EpiCypher, Cat #16-4201) were used. […] Right after the addition of ATP the assay was monitored overtime using Cy3 excitation (531 nm) and simultaneous detection of Cy3 (595 nm) and Cy5 (685 nm) emission signals using an EnVision plate reader (PerkinElmer). Data are expressed as the ratio of Cy3/Cy5 signal overtime.
# Inhibition of nucleosome remodeling by CHD1L inhibitors blocks DDR signaling. CHD1L's main role is chromatin remodeling and DNA relaxation, moving from a tightly condensed DNA to an accessible state allowing for DNA transcription and repair. Thus, the effect of CHD1L ATPase inhibition on its nucleosome remodeling activity using a FRET-based assay was used. The FRET assay measures the distancing of Cy3 on DNA and Cy5 on the H2A histone upon nucleosome sliding.
nucleosome remodeling rate (full length CHD1L),SMILES,IC50 (HCT116 Parental cells; Compound 11 0 μM) [µM],IC50 (HCT116 Parental cells; Compound 11 2.5 μM) [µM],IC50 (HCT116 Parental cells; Compound 11 3 μM) [µM],IC50 (HCT116 Parental cells; Compound 11 3.5 μM) [µM],IC50 (HCT116 Parental cells; Compound 12 0 μM) [µM],IC50 (HCT116 Parental cells; Compound 12 5 μM) [µM],IC50 (HCT116 Parental cells; Compound 12 6 μM) [µM],"5FU Response (tumor growth inhibition index) (CRC patient samples; patient sample CRC001, Primary, KRAS) [%]","5FU Response (tumor growth inhibition index) (CRC patient samples; patient sample CRC026, Metastatic) [%]","5FU Response (tumor growth inhibition index) (CRC patient samples; patient sample CRC042, Primary, KRAS, TP53) [%]","5FU Response (tumor growth inhibition index) (CRC patient samples; patient sample CRC102, Metastatic, KRAS) [%]",PARP1 enzyme activity (PARP1)
,"O=c1[nH]cc(F)c(=O)[nH]1 [Compound 5-FU, 5-fluorouracil]",95.7,192,63.4,43.2,103,34.6,11.5,185.8,77.3,107.8,113.1,
reduction of the remodeling rate,"Cc1cc(Nc2ccc(NC(=O)Cc3cccs3)cc2)nc(N2CCCC2)n1 [Compound 6, N-(4-((6-methyl-2-(pyrrolidin-1-yl)pyrimidin-4-yl)amino)phenyl)-2-(thiophen-2-yl)acetamide]",,,,,,,,,,,,does not have any effect on PARP1/2 activity
